Assay results reported in US12533428B2, “Multimodal fluorine-CY3/5/7-DOTA-hapten compositions, diagnostics, fluorescence guided surgery and radioimmunotherapy” (Memorial Sloan Kettering Cancer Center, priority 2019, dated 2026).

Assay: In vivo biodistribution and pharmacokinetics in tumor free mice (gamma counter)
Protocol: The in vivo biodistribution and pharmacokinetics of ([^177Lu]-Compound 6) and BnDOTA[^177Lu] was investigated in tumor free mice. See FIGS. 17A-17B and Tables 2 and 3. Mice were dosed with radiolabeled probes at t=0 and sacrificed at various time points. Organs were harvested and activity was counted by gamma counter. Tables 2-3 show the serial biodistribution data for the analyzed organs of Compound 6 and Compound 2, respectively. FIG. 17A overlays the time course in activity in either vital tissues (left panel) or the blood (right panel) between the two probes.

BnDOTA[^177Lu] [[^177Lu]-Compound 2, reference compound]
Uptake (Blood, 1 h after dosing): 0.068 ± 0.029 % injected Dose/gram | Uptake (Blood, 2 h after dosing): 0.013 ± 0.005 % injected Dose/gram | Uptake (Blood, 4 h after dosing): 0.001 ± 0 % injected Dose/gram | Uptake (Blood, 24 h after dosing): 0.001 ± 0 % injected Dose/gram | Uptake (Blood, 48 h after dosing): 0.001 ± 0.001 % injected Dose/gram | Uptake (Bone, 1 h after dosing): 0.04 ± 0.012 % injected Dose/gram | Uptake (Bone, 2 h after dosing): 0.325 ± 0.276 % injected Dose/gram | Uptake (Bone, 4 h after dosing): 0.015 ± 0.013 % injected Dose/gram | Uptake (Bone, 24 h after dosing): 0.01 ± 0.008 % injected Dose/gram | Uptake (Bone, 48 h after dosing): 0.018 ± 0.028 % injected Dose/gram | Uptake (Brain, 1 h after dosing): 0.015 ± 0.006 % injected Dose/gram | Uptake (Brain, 2 h after dosing): 0.025 ± 0.01 % injected Dose/gram | Uptake (Brain, 4 h after dosing): 0.01 ± 0 % injected Dose/gram | Uptake (Brain, 24 h after dosing): 0.001 ± 0 % injected Dose/gram | Uptake (Brain, 48 h after dosing): 0.001 ± 0.001 % injected Dose/gram | Biodistribution, comparison of the two probes (FIG. 17B): comparable biodistribution | Uptake (Heart, 1 h after dosing): 0.033 ± 0.013 % injected Dose/gram | Uptake (Heart, 2 h after dosing): 0.023 ± 0.005 % injected Dose/gram | Uptake (Heart, 4 h after dosing): 0.01 ± 0 % injected Dose/gram | Uptake (Heart, 24 h after dosing): 0.01 ± 0 % injected Dose/gram | Uptake (Heart, 48 h after dosing): 0.016 ± 0.03 % injected Dose/gram | Uptake (Kidneys, 1 h after dosing): 0.86 ± 0.177 % injected Dose/gram | Uptake (Kidneys, 2 h after dosing): 0.8 ± 0.065 % injected Dose/gram | Uptake (Kidneys, 4 h after dosing): 0.695 ± 0.106 % injected Dose/gram | Uptake (Kidneys, 24 h after dosing): 0.448 ± 0.109 % injected Dose/gram | Uptake (Kidneys, 48 h after dosing): 0.233 ± 0.153 % injected Dose/gram | Uptake (Lg. Intestine, 1 h after dosing): 0.088 ± 0.083 % injected Dose/gram | Uptake (Lg. Intestine, 2 h after dosing): 2.878 ± 2.718 % injected Dose/gram | Uptake (Lg. Intestine, 4 h after dosing): 1.865 ± 0.963 % injected Dose/gram | Uptake (Lg. Intestine, 24 h after dosing): 0.02 ± 0 % injected Dose/gram | Uptake (Lg. Intestine, 48 h after dosing): 0.018 ± 0.013 % injected Dose/gram | Uptake (Liver, 1 h after dosing): 0.658 ± 0.074 % injected Dose/gram | Uptake (Liver, 2 h after dosing): 0.358 ± 0.083 % injected Dose/gram | Uptake (Liver, 4 h after dosing): 0.065 ± 0.024 % injected Dose/gram | Uptake (Liver, 24 h after dosing): 0.028 ± 0.01 % injected Dose/gram | Uptake (Liver, 48 h after dosing): 0.018 ± 0.012 % injected Dose/gram | Uptake (Lungs, 1 h after dosing): 0.083 ± 0.032 % injected Dose/gram | Uptake (Lungs, 2 h after dosing): 0.048 ± 0.005 % injected Dose/gram | Uptake (Lungs, 4 h after dosing): 0.023 ± 0.005 % injected Dose/gram | Uptake (Lungs, 24 h after dosing): 0.013 ± 0.005 % injected Dose/gram | Uptake (Lungs, 48 h after dosing): 0.01 ± 0 % injected Dose/gram | Uptake (Muscle, 1 h after dosing): 0.028 ± 0.01 % injected Dose/gram | Uptake (Muscle, 2 h after dosing): 0.043 ± 0.013 % injected Dose/gram | Uptake (Muscle, 4 h after dosing): 0.013 ± 0.005 % injected Dose/gram | Uptake (Muscle, 24 h after dosing): 0.003 ± 0.005 % injected Dose/gram | Uptake (Muscle, 48 h after dosing): 0.051 ± 0.1 % injected Dose/gram | Uptake (Sm. Intestine, 1 h after dosing): 1.493 ± 0.554 % injected Dose/gram | Uptake (Sm. Intestine, 2 h after dosing): 0.86 ± 0.389 % injected Dose/gram | Uptake (Sm. Intestine, 4 h after dosing): 0.128 ± 0.05 % injected Dose/gram | Uptake (Sm. Intestine, 24 h after dosing): 0.01 ± 0 % injected Dose/gram | Uptake (Sm. Intestine, 48 h after dosing): 0.005 ± 0.006 % injected Dose/gram | Uptake (Spleen, 1 h after dosing): 0.06 ± 0.041 % injected Dose/gram | Uptake (Spleen, 2 h after dosing): 0.053 ± 0.005 % injected Dose/gram | Uptake (Spleen, 4 h after dosing): 0.025 ± 0.01 % injected Dose/gram | Uptake (Spleen, 24 h after dosing): 0.023 ± 0.005 % injected Dose/gram | Uptake (Spleen, 48 h after dosing): 0.01 ± 0.012 % injected Dose/gram | Uptake (Stomach, 1 h after dosing): 0.06 ± 0.055 % injected Dose/gram | Uptake (Stomach, 2 h after dosing): 0.2 ± 0.071 % injected Dose/gram | Uptake (Stomach, 4 h after dosing): 0.045 ± 0.017 % injected Dose/gram | Uptake (Stomach, 24 h after dosing): 0.01 ± 0 % injected Dose/gram | Uptake (Stomach, 48 h after dosing): 0.013 ± 0.013 % injected Dose/gram | Uptake (Tail, 1 h after dosing): 0.245 ± 0.179 % injected Dose/gram | Uptake (Tail, 2 h after dosing): 0.183 ± 0.056 % injected Dose/gram | Uptake (Tail, 4 h after dosing): 0.118 ± 0.041 % injected Dose/gram | Uptake (Tail, 24 h after dosing): 0.065 ± 0.044 % injected Dose/gram | Uptake (Tail, 48 h after dosing): 0.01 ± 0.008 % injected Dose/gram | Clearance (time course of activity in vital tissues and blood) (comparison of the two probes): cleared at similar rates
